Reference: patent publication US20260272907A1, “Therapeutic Tyrosine Kinase Inhibitors for Multiple Sclerosis” (Principia Biopharma Inc., priority 2022, published 2026)

Tested on: patients with relapsing multiple sclerosis
Assay: Phase 2b dose-finding study: adverse events (TEAEs, SAEs, AESIs), safety population
Conditions: for Adverse event: Accidental overdose / Adverse event: Alanine aminotransferase increased / Adverse event: Alopecia / Adverse event: Back pain / Adverse event: Gastroenteritis / Adverse event: Headache / Adverse event: Muscle spasticity / Adverse event: Nasopharyngitis / Adverse event: Oropharyngeal pain / Adverse event: Peripheral edema / Adverse event: Respiratory tract infection / Adverse event: Upper respiratory tract infection: 12 weeks treatment
[1] = BTKi 5 mg (n = 33), Weeks 1 to 12
[2] = BTKi 15 mg (N = 16), Weeks 1 to 4
[3] = BTKi 15 mg (n = 32), Weeks 1 to 12
[4] = BTKi 30 mg (N = 16), Weeks 1 to 4
[5] = BTKi 30 mg (n = 33), Weeks 1 to 12
[6] = BTKi 60 mg (N = 16), Weeks 1 to 4
[7] = BTKi 60 mg (n = 32), Weeks 1 to 12
[8] = BTKi 5 (N = 32), BTK inhibitor treatment period, safety population
[9] = BTKi 15 (N = 32), BTK inhibitor treatment period, safety population
[10] = BTKi 30 (N = 33), BTK inhibitor treatment period, safety population
[11] = BTKi 60 (N = 33), BTK inhibitor treatment period, safety population

C=CC(=O)N1CCC[C@@H](n2c(=O)n(-c3ccc(Oc4ccccc4)cc3)c3c(N)nccc32)C1 [the BTK inhibitor, (R)-1-(1-acryloylpiperidin-3-yl)-4-amino-3-(4-phenoxyphenyl)-1H-imidazo[4,5-c]pyridin-2(3H)-one]
Any treatment-related AE [1]: 5 (15.2) n (%)
Serious AE [1]: 0 n (%)
AE leading to death [2]: 0
AE leading to study discontinuation [2]: 0
Any AE leading to study treatment discontinuation [2]: 0
Any treatment-related AE [2]: 0
Serious AE [2]: 0
Adverse event: Accidental overdose (BTKi 15 mg (n = 32)): 0%
Adverse event: Alanine aminotransferase increased (BTKi 15 mg (n = 32)): 0%
Adverse event: Alopecia (BTKi 15 mg (n = 32)): 1 (3%)
Adverse event: Back pain (BTKi 15 mg (n = 32)): 1 (3%)
Adverse event: Gastroenteritis (BTKi 15 mg (n = 32)): 0%
Adverse event: Headache (BTKi 15 mg (n = 32)): 3 (9%)
Adverse event: Muscle spasticity (BTKi 15 mg (n = 32)): 0%
Adverse event: Nasopharyngitis (BTKi 15 mg (n = 32)): 0%
Adverse event: Oropharyngeal pain (BTKi 15 mg (n = 32)): 0%
Adverse event: Peripheral edema (BTKi 15 mg (n = 32)): 0%
Adverse event: Respiratory tract infection (BTKi 15 mg (n = 32)): 1 (3%)
Adverse event: Upper respiratory tract infection (BTKi 15 mg (n = 32)): 2 (6%)
AE leading to death [3]: 0 n (%)
AE leading to study discontinuation [3]: 0 n (%)
Any AE (4 weeks vs. placebo 12 weeks) [3]: 17 (53.1) n (%)
Any AE leading to study treatment discontinuation [3]: 0 n (%)
Any treatment-related AE [3]: 1 (3.1) n (%)
Serious AE [3]: 0 n (%)
AE leading to death [4]: 0
AE leading to study discontinuation [4]: 0
Any AE leading to study treatment discontinuation [4]: 0
Any treatment-related AE [4]: 0
Serious AE [4]: 0
Adverse event: Accidental overdose (BTKi 30 mg (n = 33)): 0%
Adverse event: Alanine aminotransferase increased (BTKi 30 mg (n = 33)): 1 (3%)
Adverse event: Alopecia (BTKi 30 mg (n = 33)): 0%
Adverse event: Back pain (BTKi 30 mg (n = 33)): 2 (6%)
Adverse event: Gastroenteritis (BTKi 30 mg (n = 33)): 0%
Adverse event: Headache (BTKi 30 mg (n = 33)): 1 (3%)
Adverse event: Muscle spasticity (BTKi 30 mg (n = 33)): 1 (3%)
Adverse event: Nasopharyngitis (BTKi 30 mg (n = 33)): 1 (3%)
Adverse event: Oropharyngeal pain (BTKi 30 mg (n = 33)): 1 (3%)
Adverse event: Peripheral edema (BTKi 30 mg (n = 33)): 0%
Adverse event: Respiratory tract infection (BTKi 30 mg (n = 33)): 1 (3%)
Adverse event: Upper respiratory tract infection (BTKi 30 mg (n = 33)): 1 (3%)
AE leading to death [5]: 0 n (%)
AE leading to study discontinuation [5]: 0 n (%)
Any AE (4 weeks vs. placebo 12 weeks) [5]: 18 (54.5) n (%)
Any AE leading to study treatment discontinuation [5]: 0 n (%)
Any treatment-related AE [5]: 4 (12.1) n (%)
Serious AE [5]: 0 n (%)
AE leading to death [6]: 0
AE leading to study discontinuation [6]: 0
Any AE leading to study treatment discontinuation [6]: 0
Serious AE [6]: 0
Adverse event: Accidental overdose (BTKi 60 mg (n = 32)): 3 (9%)
Adverse event: Alanine aminotransferase increased (BTKi 60 mg (n = 32)): 1 (3%)
Adverse event: Alopecia (BTKi 60 mg (n = 32)): 1 (3%)
Adverse event: Back pain (BTKi 60 mg (n = 32)): 0%
Adverse event: Gastroenteritis (BTKi 60 mg (n = 32)): 2 (6%)
Adverse event: Headache (BTKi 60 mg (n = 32)): 4 (13%)
Adverse event: Muscle spasticity (BTKi 60 mg (n = 32)): 2 (6%)
Adverse event: Nasopharyngitis (BTKi 60 mg (n = 32)): 3 (9%)
Adverse event: Oropharyngeal pain (BTKi 60 mg (n = 32)): 1 (3%)
Adverse event: Peripheral edema (BTKi 60 mg (n = 32)): 2 (6%)
Adverse event: Respiratory tract infection (BTKi 60 mg (n = 32)): 1 (3%)
Adverse event: Upper respiratory tract infection (BTKi 60 mg (n = 32)): 1 (3%)
AE leading to death [7]: 0 n (%)
AE leading to study discontinuation [7]: 0 n (%)
Any AE (4 weeks vs. placebo 12 weeks) [7]: 16 (50.0) n (%)
Any AE leading to study treatment discontinuation [7]: 0 n (%)
Any treatment-related AE [7]: 7 (21.9) n (%)
Serious AE [7]: 1 (3.1) n (%)
Participants with any TEAE [8]: 16 (50.0) n (%)
Participants with any TEAE leading to death [8]: 0 n (%)
Participants with any TEAE leading to study treatment discontinuation [8]: 0 n (%)
Participants with any severe TEAE [8]: 0 n (%)
Participants with any treatment emergent SAE [8]: 0 n (%)
Participants with any treatment-related TEAE [8]: 6 (18.8) n (%)
Participants with study discontinuation due to any TEAE [8]: 0 n (%)
Participants with treatment emergent SAE(s): Any class [8]: 0 n(%)
Participants with treatment emergent SAE(s): Multiple sclerosis relapse [8]: 0 n(%)
Participants with treatment emergent SAE(s): NERVOUS SYSTEM DISORDERS [8]: 0 n(%)
Participants with any TEAE leading to death (BTKi 5 (N = 32), Weeks 1 to 4): 0 n (%)
Participants with any TEAE leading to study treatment discontinuation (BTKi 5 (N = 32), Weeks 1 to 4): 0 n (%)
Participants with any severe TEAE (BTKi 5 (N = 32), Weeks 1 to 4): 0 n (%)
Participants with any treatment emergent SAE (BTKi 5 (N = 32), Weeks 1 to 4): 0 n (%)
Participants with study discontinuation due to any TEAE (BTKi 5 (N = 32), Weeks 1 to 4): 0 n (%)
Participants with any TEAE [9]: 18 (56.3) n (%)
Participants with any TEAE leading to death [9]: 0 n (%)
Participants with any TEAE leading to study treatment discontinuation [9]: 0 n (%)
Participants with any severe TEAE [9]: 0 n (%)
Participants with any treatment emergent SAE [9]: 0 n (%)
Participants with any treatment-related TEAE [9]: 3 (9.4) n (%)
Participants with study discontinuation due to any TEAE [9]: 0 n (%)
Participants with treatment emergent SAE(s): Any class [9]: 0 n(%)
Participants with treatment emergent SAE(s): Multiple sclerosis relapse [9]: 0 n(%)
Participants with treatment emergent SAE(s): NERVOUS SYSTEM DISORDERS [9]: 0 n(%)
Participants with any TEAE leading to death (BTKi 15 (N = 32), Weeks 1 to 4): 0 n (%)
Participants with any TEAE leading to study treatment discontinuation (BTKi 15 (N = 32), Weeks 1 to 4): 0 n (%)
Participants with any severe TEAE (BTKi 15 (N = 32), Weeks 1 to 4): 0 n (%)
Participants with any treatment emergent SAE (BTKi 15 (N = 32), Weeks 1 to 4): 0 n (%)
Participants with study discontinuation due to any TEAE (BTKi 15 (N = 32), Weeks 1 to 4): 0 n (%)
Participants with any TEAE [10]: 17 (51.5) n (%)
Participants with any TEAE leading to death [10]: 0 n (%)
Participants with any TEAE leading to study treatment discontinuation [10]: 0 n (%)
Participants with any severe TEAE [10]: 1 (3.0) n (%)
Participants with any treatment emergent SAE [10]: 1 (3.0) n (%)
Participants with any treatment-related TEAE [10]: 4 (12.1) n (%)
Participants with study discontinuation due to any TEAE [10]: 0 n (%)
Participants with treatment emergent SAE(s): Any class [10]: 1 (3.0) n(%)
Participants with treatment emergent SAE(s): Multiple sclerosis relapse [10]: 1 (3.0) n(%)
Participants with treatment emergent SAE(s): NERVOUS SYSTEM DISORDERS [10]: 1 (3.0) n(%)
Participants with any TEAE leading to death (BTKi 30 (N = 33), Weeks 1 to 4): 0 n (%)
Participants with any TEAE leading to study treatment discontinuation (BTKi 30 (N = 33), Weeks 1 to 4): 0 n (%)
Participants with any severe TEAE (BTKi 30 (N = 33), Weeks 1 to 4): 0 n (%)
Participants with any treatment emergent SAE (BTKi 30 (N = 33), Weeks 1 to 4): 0 n (%)
Participants with study discontinuation due to any TEAE (BTKi 30 (N = 33), Weeks 1 to 4): 0 n (%)
Participants with any TEAE leading to death [11]: 0 n (%)
Participants with any TEAE leading to study treatment discontinuation [11]: 0 n (%)
Participants with any severe TEAE [11]: 0 n (%)
Participants with any treatment emergent SAE [11]: 0 n (%)
Participants with any treatment-related TEAE [11]: 2 (6.1) n (%)
Participants with study discontinuation due to any TEAE [11]: 0 n (%)
Participants with treatment emergent SAE(s): Any class [11]: 0 n(%)
Participants with treatment emergent SAE(s): Multiple sclerosis relapse [11]: 0 n(%)
Participants with treatment emergent SAE(s): NERVOUS SYSTEM DISORDERS [11]: 0 n(%)
Participants with any TEAE leading to death (BTKi 60 (N = 33), Weeks 1 to 4): 0 n (%)
Participants with any TEAE leading to study treatment discontinuation (BTKi 60 (N = 33), Weeks 1 to 4): 0 n (%)
Participants with any severe TEAE (BTKi 60 (N = 33), Weeks 1 to 4): 0 n (%)
Participants with any treatment emergent SAE (BTKi 60 (N = 33), Weeks 1 to 4): 0 n (%)
Participants with study discontinuation due to any TEAE (BTKi 60 (N = 33), Weeks 1 to 4): 0 n (%)
AESIs (alanine aminotransferase increased >3×ULN) reported in the study (all dose groups): two
TEAEs leading to permanent treatment discontinuation (all dose groups): no TEAEs leading to permanent treatment discontinuation
Upper respiratory tract infection (TEAE) (in each treatment group (5, 15, 30, 60 mg), Weeks 1 to 4): 1 case
Deaths (whole study, all dose groups): No deaths
